EC50 data for 27 compounds are collected here from patent US8951964B2, “Phenanthridine macrocyclic hepatitis C serine protease inhibitors” (priority 2010, dated 2015).

Common to all, as to assay type: cell-based, HCV
The subject of assay [1] is genotype 3a NS3 gene in transient replicon. As to the kind of experiment: 3a transient replicon (luciferase reporter). The settings on record: Hepatitis C virus, Huh-7, read-out: 3a transient replicon (nM).
In assay [2] the test system is genotype 1a transient replicon (1a-H77). As to the kind of experiment: 1a transient replicon (luciferase reporter). Particulars: Hepatitis C virus, HuH-7 cells, 5% FBS. In general terms: A replicon is a self-replicating genome or part of one, used to study replication in cells.
Assay [3] relates to genotype 1a replicon (1a-H77). The assay can be described thus: 1a stable replicon (luciferase reporter). The settings on record: Hepatitis C virus, Huh-7, luciferase reporter, HuH-7 cells, 5% FBS.
Assay [4] concerns genotype 1b replicon (1b-Con1, 1b-N). As to the kind of experiment: 1b stable replicon (luciferase reporter). The settings on record: Hepatitis C virus, HuH-7 cells, 5% FBS.
The test system of assay [5] is genotype 1b transient replicon. As to the kind of experiment: 1b transient replicon (luciferase reporter). Particulars: Hepatitis C virus, HuH-7 cells, 5% FBS.

On to `Cc1cc(C(=O)N[C@H]2CCCCC/C=C\[C@@H]3C[C@@]3(C(=O)NS(=O)(=O)C3CC3)NC(=O)[C@@H]3C[C@@H](Oc4nc5cc(F)ccc5c5cc(F)ccc45)CN3C2=O)no1`, for which the EC50 in assay [1] was greater than 1 nM; in assay [2], 0.1 to 0.5 nM; in assay [3] it was 0.1 to 0.5 nM; in assay [4], 0.1 to 0.5 nM; in assay [5] it was 0.1 to 0.5 nM.

Take `Cc1cc(C(=O)N[C@H]2CCCCC/C=C\[C@@H]3C[C@@]3(C(=O)NS(=O)(=O)C3CC3)NC(=O)[C@@H]3C[C@@H](Oc4nc5cccc(F)c5c5ccccc45)CN3C2=O)no1`: the EC50 was greater than 1 nM in assay [1]; less than 0.1 nM in assay [2]; 0.5 to 1 nM in assay [3]; 0.1 to 0.5 nM in assay [4]; 0.1 to 0.5 nM in assay [5].

Regarding `Cc1cc(C(=O)N[C@H]2CCCCC/C=C\[C@@H]3C[C@@]3(C(=O)NS(=O)(=O)C3CC3)NC(=O)[C@@H]3C[C@@H](Oc4nc5ccccc5c5ccc(F)cc45)CN3C2=O)no1`, the EC50 was greater than 1 nM in assay [1]; less than 0.1 nM in assay [2]; 0.1 to 0.5 nM in assay [3]; 0.1 to 0.5 nM in assay [4]; 0.1 to 0.5 nM in assay [5].

In the case of `Cc1cc(C(=O)N[C@H]2CCCCC/C=C\[C@@H]3C[C@@]3(C(=O)NS(=O)(=O)C3CC3)NC(=O)[C@@H]3C[C@@H](Oc4nc5cc(F)c(F)cc5c5ccc(OC(F)(F)F)cc45)CN3C2=O)no1`, the EC50 was greater than 1 nM in assay [1]; less than 0.1 nM in assay [2]; 0.5 to 1 nM in assay [3]; 0.5 to 1 nM in assay [4]; less than 0.1 nM in assay [5].

With `CC1(S(=O)(=O)NC(=O)[C@@]23C[C@H]2/C=C\CCCCC[C@H](NC(=O)[C@H](O)C(F)(F)F)C(=O)N2C[C@H](Oc4nc5cc(F)ccc5c5ccccc45)C[C@H]2C(=O)N3)CC1`, the EC50 in assay [1] is greater than 1 nM; in assay [2], less than 0.1 nM; in assay [3], 0.1 to 0.5 nM; in assay [4], 0.1 to 0.5 nM; in assay [5], less than 0.1 nM.

Take `Cc1cc(C(=O)N[C@H]2CCCCC/C=C\[C@@H]3C[C@@]3(C(=O)NS(=O)(=O)C3(C)CC3)NC(=O)[C@@H]3C[C@@H](Oc4nc5ccccc5c5ccc(F)cc45)CN3C2=O)no1`: the EC50 in assay [1] is greater than 1 nM; in assay [2] it was less than 0.1 nM; in assay [3] it was 0.5 to 1 nM; in assay [4], 0.5 to 1 nM; in assay [5] it was 0.1 to 0.5 nM.

For `Cn1ccc(C(=O)N[C@H]2CCCCC/C=C\[C@@H]3C[C@@]3(C(=O)NS(=O)(=O)C3(C)CC3)NC(=O)[C@@H]3C[C@@H](Oc4nc5cc(F)ccc5c5ccccc45)CN3C2=O)n1`, the EC50 lay in the range of 0.1 to 0.5 nM in assay [1]; 0.1 to 0.5 nM in assay [2]; 0.5 to 1 nM in assay [3]; 0.1 to 0.5 nM in assay [4]; 0.1 to 0.5 nM in assay [5].

As for `Cc1cc(C(=O)N[C@H]2CCCCC/C=C\[C@@H]3C[C@@]3(C(=O)NS(=O)(=O)C3(C)CC3)NC(=O)[C@@H]3C[C@@H](Oc4nc5ccccc5c5cc(F)ccc45)CN3C2=O)no1`, the EC50 in assay [1] was greater than 1 nM; in assay [3], 0.5 to 1 nM; in assay [4], 0.1 to 0.5 nM.

Consider `COc1ccc2c(c1)c(O[C@@H]1C[C@H]3C(=O)N[C@]4(C(=O)NS(=O)(=O)C5CC5)C[C@H]4/C=C\CCCCC[C@H](NC(=O)c4cc(C)on4)C(=O)N3C1)nc1ccccc12`, for which the EC50 in assay [1] was greater than 1 nM; in assay [2] it was less than 0.1 nM; in assay [3], 0.1 to 0.5 nM; in assay [4], 0.5 to 1 nM; in assay [5] it was 0.1 to 0.5 nM.

Take `Cn1ccc(C(=O)N[C@H]2CCCCC/C=C\[C@@H]3C[C@@]3(C(=O)NS(=O)(=O)C3(C)CC3)NC(=O)[C@@H]3C[C@@H](Oc4nc5ccccc5c5ccc(F)cc45)CN3C2=O)n1`: the EC50 in assay [1] is 0.5 to 1 nM; in assay [2], 0.1 to 0.5 nM; in assay [3], 0.1 to 0.5 nM; in assay [4], less than 0.1 nM; in assay [5], 0.1 to 0.5 nM.

Regarding `Cn1ccc(C(=O)N[C@H]2CCCCC/C=C\[C@@H]3C[C@@]3(C(=O)NS(=O)(=O)C3(C)CC3)NC(=O)[C@@H]3C[C@@H](Oc4nc5ccccc5c5cc(F)ccc45)CN3C2=O)n1`, the EC50 in assay [1] was 0.5 to 1 nM; in assay [2] it was 0.1 to 0.5 nM; in assay [3], 0.5 to 1 nM; in assay [4], 0.1 to 0.5 nM; in assay [5], 0.1 to 0.5 nM.

Take `CC1(S(=O)(=O)NC(=O)[C@@]23C[C@H]2/C=C\CCCCC[C@H](NC(=O)c2cncs2)C(=O)N2C[C@H](Oc4nc5cc(F)ccc5c5ccccc45)C[C@H]2C(=O)N3)CC1`: the EC50 was greater than 1 nM in assay [1]; less than 0.1 nM in assay [2]; 0.5 to 1 nM in assay [3]; 0.5 to 1 nM in assay [4]; 0.1 to 0.5 nM in assay [5].

For the compound `COc1ccc2c(c1)c(O[C@@H]1C[C@H]3C(=O)N[C@]4(C(=O)NS(=O)(=O)C5CC5)C[C@H]4/C=C\CCCCC[C@H](NC(=O)c4cc(C)on4)C(=O)N3C1)nc1cc(F)ccc12`, the results for the EC50 in assay [1], in assay [3] and in assay [4] were greater than 1 nM, 0.5 to 1 nM and 0.5 to 1 nM, respectively.

Take `COc1ccc2c(c1)c(O[C@@H]1C[C@H]3C(=O)N[C@]4(C(=O)NS(=O)(=O)C5CC5)C[C@H]4/C=C\CCCCC[C@H](NC(=O)c4cc(C)on4)C(=O)N3C1)nc1cc(OC(F)(F)F)ccc12`: the EC50 was 0.5 to 1 nM in assay [1]; less than 0.1 nM in assay [2]; 0.5 to 1 nM in assay [3]; 0.1 to 0.5 nM in assay [4]; less than 0.1 nM in assay [5].

On to `Cc1cc(C(=O)N[C@H]2CCCCC/C=C\[C@@H]3C[C@@]3(C(=O)NS(=O)(=O)C3CC3)NC(=O)[C@@H]3C[C@@H](Oc4nc5cc(OC(F)(F)F)ccc5c5ccccc45)CN3C2=O)no1`, for which the EC50 in assay [1] is 0.5 to 1 nM; in assay [2], less than 0.1 nM; in assay [3], 0.5 to 1 nM; in assay [4] it was 0.1 to 0.5 nM; in assay [5] it was less than 0.1 nM.

`Cc1cc(C(=O)N[C@H]2CCCCC/C=C\[C@@H]3C[C@@]3(C(=O)NS(=O)(=O)C3(C)CC3)NC(=O)[C@@H]3C[C@@H](Oc4nc5cc(OC(F)(F)F)ccc5c5ccccc45)CN3C2=O)no1`: the EC50 in assay [1] is greater than 1 nM; in assay [2] it was 0.1 to 0.5 nM; in assay [3], 0.5 to 1 nM; in assay [4], 0.1 to 0.5 nM; in assay [5], 0.1 to 0.5 nM.

Regarding `Cc1cc(C(=O)N[C@H]2CCCCC/C=C\[C@@H]3C[C@@]3(C(=O)NS(=O)(=O)C3CC3)NC(=O)[C@@H]3C[C@@H](Oc4nc5ccccc5c5cccc(F)c45)CN3C2=O)no1`, the EC50 in assay [1] is greater than 1 nM; in assay [2] it was less than 0.1 nM; in assay [3] it was 0.1 to 0.5 nM; in assay [4] it was 0.1 to 0.5 nM; in assay [5], 0.1 to 0.5 nM.

In the case of `Cc1cc(C(=O)N[C@H]2CCCCC/C=C\[C@@H]3C[C@@]3(C(=O)NS(=O)(=O)C3CC3)NC(=O)[C@@H]3C[C@@H](Oc4nc5cc(F)ccc5c5ccccc45)CN3C2=O)no1`, the results for the EC50 in assay [1], in assay [3] and in assay [4] were greater than 1 nM, 0.1 to 0.5 nM and 0.1 to 0.5 nM, respectively.

As to `Cn1ccc(C(=O)N[C@H]2CCCCC/C=C\[C@@H]3C[C@@]3(C(=O)NS(=O)(=O)C3(C)CC3)NC(=O)[C@@H]3C[C@@H](Oc4nc5cc(F)ccc5c5cc(F)ccc45)CN3C2=O)n1`, the EC50 in assay [2] was 0.1 to 0.5 nM; in assay [3], 0.1 to 0.5 nM; in assay [4] it was less than 0.1 nM; in assay [5], 0.1 to 0.5 nM.

Consider `Cn1ccc(C(=O)N[C@H]2CCCCC/C=C\[C@@H]3C[C@@]3(C(=O)NS(=O)(=O)C3CC3)NC(=O)[C@@H]3C[C@@H](Oc4nc5cc(F)ccc5c5ccccc45)CN3C2=O)n1`, for which the EC50 in assay [2] was 0.1 to 0.5 nM; in assay [3], 0.1 to 0.5 nM; in assay [4] it was less than 0.1 nM; in assay [5], 0.1 to 0.5 nM.

As to `CC1(S(=O)(=O)NC(=O)[C@@]23C[C@H]2/C=C\CCCCC[C@H](NC(=O)c2ccn(C(F)F)n2)C(=O)N2C[C@H](Oc4nc5cc(F)ccc5c5ccccc45)C[C@H]2C(=O)N3)CC1`, the EC50 lay in the range of 0.1 to 0.5 nM in assay [2], 0.5 to 1 nM in assay [3], 0.1 to 0.5 nM in assay [4] and 0.1 to 0.5 nM in assay [5].

As to `Cn1ccc(C(=O)N[C@H]2CCCCC/C=C\[C@@H]3C[C@@]3(C(=O)NS(=O)(=O)C3CC3)NC(=O)[C@@H]3C[C@@H](Oc4nc5cc(F)ccc5c5cc(F)ccc45)CN3C2=O)n1`, the EC50 in assay [2] was 0.1 to 0.5 nM; in assay [3] it was 0.5 to 1 nM; in assay [4] it was less than 0.1 nM; in assay [5], 0.1 to 0.5 nM.

As to `Cn1ccc(C(=O)N[C@H]2CCCCC/C=C\[C@@H]3C[C@@]3(C(=O)NS(=O)(=O)C3CC3)NC(=O)[C@@H]3C[C@@H](Oc4nc5cccc(F)c5c5ccccc45)CN3C2=O)n1`, the EC50 in assay [2] was 0.5 to 1 nM; in assay [3] it was 0.5 to 1 nM; in assay [4], less than 0.1 nM; in assay [5] it was 0.1 to 0.5 nM.

For the compound `Cn1ccc(C(=O)N[C@H]2CCCCC/C=C\[C@@H]3C[C@@]3(C(=O)NS(=O)(=O)C3CC3)NC(=O)[C@@H]3C[C@@H](Oc4nc5ccccc5c5cccc(F)c45)CN3C2=O)n1`, the EC50 is 0.1 to 0.5 nM in assay [2], 0.5 to 1 nM in assay [3], less than 0.1 nM in assay [4] and 0.5 to 1 nM in assay [5].

With `COc1ccc2c(c1)nc(O[C@@H]1C[C@H]3C(=O)N[C@]4(C(=O)NS(=O)(=O)C5CC5)C[C@H]4/C=C\CCCCC[C@H](NC(=O)c4cc(C)on4)C(=O)N3C1)c1ccc(F)cc12`, the EC50 is greater than 1 nM in assay [1], 0.1 to 0.5 nM in assay [3] and 0.1 to 0.5 nM in assay [4].

For `Cn1ccc(C(=O)N[C@H]2CCCCC/C=C\[C@@H]3C[C@@]3(C(=O)NS(=O)(=O)C3(C)CC3)NC(=O)[C@@H]3C[C@@H](Oc4nc5ccccc5c5cccc(F)c45)CN3C2=O)n1`, the EC50 in assay [2] was 0.1 to 0.5 nM; in assay [3] it was less than 0.1 nM; in assay [4] it was 0.1 to 0.5 nM; in assay [5] it was 0.1 to 0.5 nM.

In the case of `Cn1ccc(C(=O)N[C@H]2CCCCC/C=C\[C@@H]3C[C@@]3(C(=O)NS(=O)(=O)C3CC3)NC(=O)[C@@H]3C[C@@H](Oc4nc5cc(OC(F)(F)F)ccc5c5ccccc45)CN3C2=O)n1`, the EC50 was less than 0.1 nM in assay [2], less than 0.1 nM in assay [3], less than 0.1 nM in assay [4] and 0.1 to 0.5 nM in assay [5].
